The values that follow come from doi:10.64898/2025.12.10.692519v1 (biorxiv, 2025).

Read-outs that look alike come from different tables or passages of the source.

What all share (test): cells
One test has as its system TG-LAM-134-P0. Also noted: species or system primary AML patient blasts. To be noted: 48 h.
In the next test the test system is TG-LAM-135-P0. Also noted: species or system primary AML patient blasts. To be noted: 48 h.
The next test has as its system TG-LAM-136-P0. More on the design: species or system primary AML patient blasts. Conditions: 48 h.
The next test concerns TG-LAM-138-P0. More on the design: species or system primary AML patient blasts. Conditions: 48 h.
The next test deals with TG-LAM-139-P0. More on the design: species or system primary AML patient blasts. To be noted: 48 h.
Another test concerns TG-LAM-140-P0. Also noted: species or system primary AML patient blasts. Conditions: 48 h.
In the next test the test system is TG-LAM-141-P0. Also noted: species or system primary AML patient blasts. Conditions: 48 h.
The next test has as its system TG-LAM-142-P0. Also noted: species or system primary AML patient blasts. To be noted: 48 h.
A further test deals with TG-LAM-144-P0. Also noted: species or system primary AML patient blasts. Conditions: 48 h.
A further test has as its system TG-LAM-145-P0. Also noted: species or system primary AML patient blasts. Conditions: 48 h.
The next test has as its system TG-LAM-77-P0. Also noted: species or system primary AML patient blasts. To be noted: 48 h.
The next test has as its system ACHN. To be noted: Homo sapiens, ACHN, 144 h, read-out: Vincristine.
In a further test the test system is HRT-18. To be noted: Homo sapiens, HRT-18, 144 h.
The test system of another test is LnCaP. To be noted: Homo sapiens, LNCaP, 144 h, read-out: Vincristine.
The next test deals with MCF-7. To be noted: Homo sapiens, MCF7, 144 h, read-out: Vincristine.
The test system of test [1] is MESSA. Conditions: Homo sapiens, MES-SA, 144 h.
Another test concerns PC-3. Conditions: Homo sapiens, PC-3, 144 h, read-out: Vincristine.
Another test has as its system REC-1. Conditions: Homo sapiens, Rec1, 144 h.
In the next test the test system is SW-872. To be noted: Homo sapiens, SW872, 144 h.
The subject of test [2] is MESSA. Also noted: species or system MES-SA/Mx2. To be noted: Homo sapiens, MES-SA, read-out: MES-SA.
Another test relates to TG-LAM-143-P0. More on the design: species or system primary AML patient blasts. Conditions: 48 h, read-out: IC50 (µM) / AzaC.
The test system of another test is TG-LAM-75-P3. Also noted: species or system primary AML patient blasts. To be noted: 48 h, read-out: IC50 (µM) / AzaC.
The subject of another test is TG-LAM-76-P3. Also noted: species or system primary AML patient blasts. To be noted: 48 h, read-out: IC50 (µM) / AzaC.
A further test has as its system A-549. To be noted: Homo sapiens, A549, 144 h, read-out: Eribulin.
A further test relates to DU-145. To be noted: Homo sapiens, DU-145, 144 h, read-out: Eribulin.
For another test, the system named is H-1299. Conditions: Homo sapiens, NCI-H1299, 144 h, read-out: Eribulin.
The test system of the next test is HEP-2. Conditions: Homo sapiens, HEp-2, 144 h, read-out: Eribulin.
The next test has as its system HL-60. To be noted: Homo sapiens, HL-60, 144 h, read-out: Eribulin.
Another test relates to HUT-78. Conditions: Homo sapiens, HuT78, 144 h, read-out: Eribulin.
Another test concerns Karpas-299. Conditions: Homo sapiens, KARPAS-299, 144 h, read-out: Eribulin.
Another test relates to NALM-6. To be noted: Homo sapiens, NALM-6, 144 h, read-out: Eribulin.
In the next test the test system is U2OS. To be noted: Homo sapiens, U2OS, 144 h, read-out: Eribulin.

As for `CC[C@]1(O)C[C@H]2CN(CCc3c([nH]c4ccccc34)[C@@](C(=O)OC)(c3cc4c(cc3OC)N(C=O)[C@H]3[C@@](O)(C(=O)OC)[C@H](OC(C)=O)[C@]5(CC)C=CCN6CC[C@]43[C@@H]65)C2)C1` [Vincristine], the IC50 was 0.17 µM in the test with TG-LAM-134-P0 (read-out: IC50 (µM) / Vinc); more than 2 µM with TG-LAM-135-P0 (read-out: IC50 (µM) / Vinc); 1.35 µM in the test with TG-LAM-136-P0 (read-out: IC50 (µM) / Vinc); more than 2 µM with TG-LAM-138-P0 (read-out: IC50 (µM) / Vinc); more than 2 µM in the test on TG-LAM-139-P0 (read-out: IC50 (µM) / Vinc); 1.13 µM with TG-LAM-140-P0 (read-out: IC50 (µM) / Vinc). Moreover, the IC50 in the test with TG-LAM-141-P0 (read-out: IC50 (µM) / Vinc) was 1.38 µM; in the test on TG-LAM-142-P0 (read-out: IC50 (µM) / Vinc), more than 2 µM; in the test on TG-LAM-144-P0 (read-out: IC50 (µM) / Vinc), 1.6 µM; in the test with TG-LAM-145-P0 (read-out: IC50 (µM) / Vinc), more than 2 µM; in the test with TG-LAM-77-P0 (read-out: IC50 (µM) / Vinc), more than 2 µM; in the test with ACHN, 166 nM. The IC50 with HRT-18 (read-out: Vincristine) was determined as 13 nM; in the test on LnCaP, 66 nM; in the test with MCF-7, 37 nM; in the test on MESSA [1] (read-out: Vincristine), 106 nM; in the test on PC-3 it was 23 nM; in the test on REC-1 (read-out: Vincristine), 56 nM. Besides, the figures for the IC50 in the test with SW-872 (read-out: Vincristine) and in the test on MESSA [2] were 31 nM and 7.9 ± 6 nM, respectively.
Take `Nc1ncn([C@@H]2O[C@H](CO)[C@@H](O)[C@H]2O)c(=O)n1` [5-azacytidine]: the IC50 in the test on TG-LAM-134-P0 (read-out: IC50 (µM) / AzaC) was 39.1 µM; in the test with TG-LAM-135-P0 (read-out: IC50 (µM) / AzaC), more than 50 µM; with TG-LAM-136-P0 (read-out: IC50 (µM) / AzaC), more than 50 µM; in the test with TG-LAM-138-P0 (read-out: IC50 (µM) / AzaC), more than 50 µM; with TG-LAM-139-P0 (read-out: IC50 (µM) / AzaC), 38.5 µM; with TG-LAM-140-P0 (read-out: IC50 (µM) / AzaC), 16.7 µM. Further, the IC50 in the test with TG-LAM-141-P0 (read-out: IC50 (µM) / AzaC) is 20.4 µM; in the test with TG-LAM-142-P0 (read-out: IC50 (µM) / AzaC), more than 50 µM; in the test on TG-LAM-143-P0, 29.2 µM; in the test on TG-LAM-144-P0 (read-out: IC50 (µM) / AzaC), 41.7 µM; in the test on TG-LAM-145-P0 (read-out: IC50 (µM) / AzaC), 49.5 µM; with TG-LAM-75-P3, 13 µM. Further, the IC50 worked out at 9.7 µM in the test on TG-LAM-76-P3 and 19.2 µM in the test on TG-LAM-77-P0 (read-out: IC50 (µM) / AzaC).
On to `CC(=O)O[C@H]1C(=O)[C@@]2(C)[C@H]([C@H](OC(=O)c3ccccc3)[C@]3(O)C[C@H](OC(=O)[C@H](O)[C@@H](NC(=O)c4ccccc4)c4ccccc4)C(C)=C1C3(C)C)[C@]1(OC(C)=O)CO[C@@H]1C[C@@H]2O` [paclitaxel], for which the IC50 in the test with MESSA [2] amounted to 8 ± 5 nM.
As for `C=C1C[C@@H]2CC[C@@]34C[C@H]5O[C@H]6[C@@H](O3)[C@H]3O[C@H](CC[C@@H]3O[C@H]6[C@H]5O4)CC(=O)C[C@@H]3[C@@H](OC)[C@@H](C[C@H](O)CN)O[C@H]3C[C@H]3O[C@@H](CC[C@@H]1O2)C[C@@H](C)C3=C` [Eribulin], the IC50 came out at 3 nM with A-549; 2 nM with DU-145; 75 nM in the test with H-1299; 39 nM with HEP-2; 2 nM with HL-60; 99 nM in the test on HRT-18 (read-out: Eribulin). The IC50 in the test with HUT-78 turned out to be 1 nM; in the test with Karpas-299, 1 nM; with MESSA [1] (read-out: Eribulin), 121 nM; in the test on NALM-6 it was 2 nM; with REC-1 (read-out: Eribulin), 125 nM; in the test on SW-872 (read-out: Eribulin), 83 nM. Also, the IC50 in the test on U2OS stood at 32 nM.
